According to ChEMBL document CHEMBL5244278, “Bioisosteres of the Phenyl Ring: Recent Strategic Applications in Lead Optimization and Drug Design” (J Med Chem, 2021):
Converted amounts (≈) assume the structure as drawn.

Legend:
[1] = in vitro; settings: rat, liver microsomes
[2] = physchem; settings: buffer, pH 7.4
[3] = target: Vasopressin V1a receptor (Homo sapiens, UniProt P37288)
[4] = in vitro; settings: human, liver microsomes
[5] = in vitro; settings: mouse, liver microsomes
[6] = system: Influenza A virus; experiment: Antiviral activity against Influenza A virus A/PR/8/34 (PR8) strain infected in MDCK cells assessed as reduction in viral infection incubated for 72 hrs by crystal violet staining based assay; format: functional, organism-based
[7] = target: Polymerase acidic protein (Influenza A virus (A/Puerto Rico/8/1934(H1N1)), UniProt P03433)
[8] = system: Hepatitis C virus; experiment: Antiviral activity against HCV GT2a-genotype assessed as inhibition of viral replication; format: functional, organism-based, Hepacivirus hominis
[9] = system: Hepatitis C virus; experiment: Antiviral activity against HCV GT4a-genotype assessed as inhibition of viral replication; format: functional, organism-based, Hepacivirus hominis
[10] = system: Hepatitis C virus; experiment: microbe, parasite or virus in culture; settings: GT1a-genotype
[11] = system: Hepatitis C virus; experiment: Antiviral activity against HCV GT5a-genotype assessed as inhibition of viral replication; format: functional, organism-based, Hepacivirus hominis
[12] = system: Hepatitis C virus; experiment: Antiviral activity against HCV GT3a-genotype assessed as inhibition of viral replication; format: functional, organism-based, Hepacivirus hominis
[13] = system: Hepatitis C virus; experiment: microbe, parasite or virus in culture; settings: GT1b-genotype
[14] = in vitro; settings: human, Caco-2
[15] = target: T1, Beta-1 adrenergic receptor (Rattus norvegicus, UniProt P18090)
[16] = target: T2, Beta-2 adrenergic receptor (Bos taurus, UniProt Q28044); experiment: Binding affinity to bovine lung membrane adrenergic beta-2 receptor; format: cell membranes
[17] = target: T1, Beta-1 adrenergic receptor; remark: listed apart in the source
[18] = target: T2, Beta-2 adrenergic receptor; experiment: Antagonist activity at bovine lung membrane adrenergic beta-2 receptor; format: cell membranes
[19] = physchem; settings: octanol/PBS, pH 7.6
[20] = human, microsomes
[21] = in vitro; settings: human, Caco-2; remark: listed apart in the source

T2 sequence (Q28044 whole entry): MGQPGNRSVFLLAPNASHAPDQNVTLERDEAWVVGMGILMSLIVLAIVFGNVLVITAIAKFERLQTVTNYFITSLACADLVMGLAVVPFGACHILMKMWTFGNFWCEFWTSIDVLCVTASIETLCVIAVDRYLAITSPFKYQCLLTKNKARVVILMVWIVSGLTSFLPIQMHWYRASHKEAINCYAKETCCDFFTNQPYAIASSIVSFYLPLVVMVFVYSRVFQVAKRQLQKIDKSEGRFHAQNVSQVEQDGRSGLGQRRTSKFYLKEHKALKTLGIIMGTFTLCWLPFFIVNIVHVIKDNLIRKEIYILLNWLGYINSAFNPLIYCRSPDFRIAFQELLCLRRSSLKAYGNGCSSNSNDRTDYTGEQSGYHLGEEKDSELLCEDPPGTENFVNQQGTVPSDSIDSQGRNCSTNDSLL
Vasopressin V1a receptor, sequence (P37288 whole entry): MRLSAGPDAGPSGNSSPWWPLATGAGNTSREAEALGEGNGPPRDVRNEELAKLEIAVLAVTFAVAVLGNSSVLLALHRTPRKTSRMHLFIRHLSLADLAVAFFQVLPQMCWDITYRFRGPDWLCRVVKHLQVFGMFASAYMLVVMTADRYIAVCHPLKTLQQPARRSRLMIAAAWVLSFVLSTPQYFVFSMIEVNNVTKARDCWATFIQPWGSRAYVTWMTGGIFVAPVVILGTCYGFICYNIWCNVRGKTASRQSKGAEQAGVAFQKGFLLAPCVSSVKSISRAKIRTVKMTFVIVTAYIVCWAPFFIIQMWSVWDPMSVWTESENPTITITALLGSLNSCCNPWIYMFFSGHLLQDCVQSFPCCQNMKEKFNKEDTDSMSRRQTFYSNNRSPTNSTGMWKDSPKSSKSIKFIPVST
T1 sequence (P18090 whole entry): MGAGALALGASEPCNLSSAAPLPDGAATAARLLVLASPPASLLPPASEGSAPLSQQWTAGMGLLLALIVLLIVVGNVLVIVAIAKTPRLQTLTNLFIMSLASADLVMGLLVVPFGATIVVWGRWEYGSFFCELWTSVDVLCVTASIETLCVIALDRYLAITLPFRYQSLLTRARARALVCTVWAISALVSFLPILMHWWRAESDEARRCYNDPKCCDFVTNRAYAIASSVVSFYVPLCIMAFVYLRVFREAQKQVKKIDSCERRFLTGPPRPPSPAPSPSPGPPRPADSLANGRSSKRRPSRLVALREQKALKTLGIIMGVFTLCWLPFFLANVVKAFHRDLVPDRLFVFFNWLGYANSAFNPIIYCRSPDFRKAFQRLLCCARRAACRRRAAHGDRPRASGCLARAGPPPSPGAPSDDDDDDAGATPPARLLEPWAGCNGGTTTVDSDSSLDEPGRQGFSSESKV

Structure (SMILES): Clc1cnc2n1CCCc1nnc(C3CCN(c4ccccn4)CC3)n1-2
- microsomal CLint [1]: 32 µL/min/mg
- solubility kinetic [2]: 93.8 µM (≈ 34.7 µg/mL)
- Ki [3]: 140 nM
- microsomal CLint [4]: 4 µL/min/mg
- microsomal CLint [5]: 33 µL/min/mg

Structure (SMILES): CCN1CCC(Cc2ccc(Cl)cc2)(C(=O)/C=C(\O)C(=O)O)CC1
- IC50 [6]: 1100 nM
- Ki [7]: 90 nM

Structure (SMILES): COC(=O)N[C@H](C(=O)N1CCC[C@H]1c1nc2cc(-c3csc4c(-c5ccc(-c6c[nH]c([C@@H]7CCCN7C(=O)[C@H](NC(=O)OC)c7ccccc7)n6)cc5)csc34)ccc2[nH]1)C(C)C
- EC50 [8]: 0.002 nM
- EC50 [9]: 0.002 nM
- EC50 [10]: 0.002 nM
- EC50 [11]: 0.002 nM
- EC50 [12]: 0.1 nM
- EC50 [13]: 0.002 nM

Structure (SMILES): Clc1ccc2c(c1)CCCc1nnc(C3CCN(c4ccccn4)CC3)n1-2
- solubility kinetic [2]: 8.9 µM (≈ 3.38 µg/mL)
- efflux ratio [14]: 1

Structure (SMILES): CCO/N=C/C(O)CNC(C)(C)C (centres undefined)
- IC50 [15]: 8320 nM
- Ki [16]: 850 nM
- Ki [17]: 850 nM
- IC50 [18]: 269 nM

Structure (SMILES): O=C(CCCCCCC(=O)Nc1ccccc1)NO [VORINOSTAT]
- logD [19]: 0.99

Structure (SMILES): Clc1cnc2n1CCCc1nnc([C@H]3CC[C@H](Oc4ccccn4)CC3)n1-2
- solubility kinetic [2]: 49.6 µM (≈ 19.1 µg/mL)
- CLH [20]: 1 µL/min/mg
- Ki [3]: 14 nM
- Papp A→B [21]: 41 ×10⁻⁶ cm/s
